In patent publication US20260000685A1, “PHARMACEUTICAL COMPOSITION FOR PREVENTING OR TREATING DEGENERATIVE BRAIN DISEASES, COMPRISING CANNABINOIDS AS ACTIVE INGREDIENT, AND USES THEREOF” (NEOCANNBIO CO., LTD., priority 2022, published 2026):

Columns and labels:
[1] = test system: BDNF (brain-derived neurotrophic factor); experiment: Western blot of BDNF in hippocampal tissues of animal model; format: in vivo, ICR mice; conditions: day 19; compared to Aβ1-42 treated group; FIG. 17
Experimental: (§1) To conduct Western blotting, tissues were homogenized in radioimmunoprecipitation assay buffer (Cell Signaling) to acquire tissue lysates. Tissue protein concentrations were determined using the Bio-Rad protein assay (Bio-Rad, Hercules, CA, USA), and Western blot analysis was conducted using 80-120 μg of protein. Next, the Western blotting samples prepared using the proteins were separated using 12% SDS-PAGE and transferred to a polyvinylidene fluoride membrane (PVDF) (Merck Millipore, Burlington, MA, USA; 0.4 μm). The PVDF was blocked with tris-buffered saline including 5% bovine serum albumin and Tween-20, and incubated with primary antibodies overnight at 4° C. After primary antibody incubation, the samples were incubated with HRP-conjugated secondary antibody (Sigma; 1:5000) for 1 hour at room temperature, and immunodetection was conducted using an enhanced chemiluminescence detection kit (GE Healthcare, Chicago, IL, USA).
(§2) Specifically, hippocampal tissues were acquired on day 19 from the animal models created in Example 7 above (PBS treated group, Aβ1-42 treated group, CBDA treated group, and THCA treated group), and Western blot analysis was conducted on the hippocampal tissues to evaluate the expression levels of BDNF, p-CREB, and p-TrKB.

amyloid beta (Aβ) [2] = experiment: Western blotting of Aβ expression in Aβ1-42-treated primary neuronal cells; format: cell-based, ICR mice; conditions: with Aβ1-42 (5 μM), 24 hours; for expression level of oligomeric Aβ / expression level of polymeric Aβ: CBDA (6 μM) or THCA (5 μM), FIG. 6; for expression level of AB: compared to Aβ1-42 alone, FIG. 5
Experimental: (§3) Specifically, primary neuronal cells derived from ICR mice were cultured for 6 days, and then treated with CBDA, THCA, THC, or CBN compounds while treating with Aβ1-42 (5 μM), and treated together for 24 hours. Next, Western blotting was conducted to confirm the expression levels of APP (Amyloid Precursor Protein), polymeric Aβ, and oligomeric AB in the cells.
as §1

amyloid beta (Aβ) [3] = experiment: Western blot of Aβ in hippocampal tissues of animal model; format: in vivo, ICR mice; conditions: day 19; compared to Aβ1-42 treated group; FIG. 15
Experimental: as §1
as §2, with “APP (Amyloid Precursor Protein), polymeric Aβ,” for “BDNF, p-CREB,”, “oligomeric Aβ.” for “p-TrKB.”

primary neuronal cells = experiment: Inhibition of Aβ1-42-induced neuron apoptosis (MTS cell viability); format: cell-based, ICR mice; conditions: for cell survival rate level: different concentrations with Aβ1-42 (5 μM), 24 hours, compared to control treated with Aβ1-42 alone, FIG. 2; for neuron apoptosis inhibition efficacy: same concentration of CBDA, CBD, THCA and THC, Memantine as positive control, FIG. 3
Experimental: Specifically, primary neuronal cells derived from ICR mice were seeded in 96-wells at 5×10^5 cells per well and cultured for 6 days. Afterwards, the six compounds of Example 1 above were treated at different concentrations and Aβ1-42 (5 μM) was treated to induce neuron apoptosis, and the cells were treated together for 24 hours. Afterwards, a MTS solution was added to the medium and incubated for 2 hours. Cytotoxicity (cell viability) was measured using a microplate spectrophotometer (Bio-Tek Power Wave XS, Winooski, VT, USA), and absorbance was measured at 490 nm.
Next, the neuron apoptosis inhibition efficacy for the same concentration of CBDA, CBD, THCA and THC was evaluated using the same method as above. Memantine, known as an Alzheimer's treatment, was used as a positive control group.

[4] = test system: APP (Amyloid Precursor Protein); experiment: Western blotting of APP expression in Aβ1-42-treated primary neuronal cells; format: cell-based, ICR mice; conditions: CBDA (6 μM) or THCA (5 μM), with Aβ1-42 (5 μM), 24 hours; FIG. 6
Experimental: as §3, §1

[5] = test system: Alzheimer's animal model (Aβ1-42 treated mice); experiment: Object location test (OLT) in Aβ1-42 Alzheimer's animal model; format: in vivo, ICR mice; conditions: compared to mice treated with only Aβ1-42; FIG. 14
Experimental: Female ICR mice (8 weeks old) used in the experiment were purchased from Coretech (Pyeongtaek, Korea). Mice were housed in the animal care facility of the Korea Institute of Science and Technology (KIST) (temperature 22±2° C., humidity 40-60%, 12-hour light/dark cycle). Mice were housed in an environment with free access to food and water. All animal experiments were conducted in accordance with the protocol approval of the Animal Ethics Committee of our institution.
Next, to create an animal model, mice were randomly selected and divided into four groups as follows: PBS treated group (PBS+PBS), Aβ1-42 treated group (Aβ1-42 +PBS) (Alzheimer's animal model), CBDA treated group (Δβ1-42+CBDA (6.25 µM, 3 μL/mouse)), and THCA treated group (Δβ1-42+THCA (12.5 μM, 3 μL/mouse)).
After anesthetizing the isolated mice by intraperitoneal (i.p.) injection of avertin (250 mg/kg), the mice were fixed in a stereotaxic apparatus, and CBDA, THCA, Aβ1-42, or PBS (3 μl/15 min/mouse) were gradually delivered to the hippocampus using a Hamilton syringe (coordinates of bregma: mediolateral (ML)=1.30 mm, anteroposterior (AP)=−2.00 mm, dorsoventral=−2.20 mm).
First, the Novel Object Recognition Test (NOR) was conducted to examine a natural tendency of the experimental mice to explore novel stimuli. For this purpose, during the habituation session conducted 2 days before the test, the mice were allowed to explore the test environment consisting of an opaque custom-made Plexiglas box (35 cm×45 cm×25 cm) for 10 minutes. The sample object phase was conducted 24 hours later. Two identical white circular cylinders (sample objects) were placed on opposite edges of the test environment, and mice were given access to the objects for 10 minutes. After 4 hours (novel object stage), one of the sample objects in the test environment was replaced with a similarly sized novel object (colored miniature animal), and the mouse was allowed to contact this novel arrangement for 5 minutes. The time when the mouse's nose stayed <1 cm away from the object was considered the time the mouse explored the object, excluding the time when the mouse stood on the object. The identification rate was calculated as the time spent exploring the novel object relative to the time spent exploring the two objects.
Additionally, for the object location test (OLT), it was conducted in the same manner as the novel object recognition test described above, but on the last day of the object location test, one of the two sample objects was moved to a different location and the test was conducted.

[6] = test system: phosphorylated tau (p-Tau); experiment: Western blot of Tau/p-Tau in hippocampal tissues of animal model; format: in vivo, ICR mice; conditions: day 19; compared to Aβ1-42 treated group; FIG. 16
Experimental: as §1
as §2, with “Tau” for “BDNF, p-CREB,”, “phosphorylated Tau (p-Tau).” for “p-TrKB.”

[7] = test system: p-TrkB (Tyrosine receptor kinase B); experiment: Western blot of p-TrkB in hippocampal tissues of animal model; format: in vivo, ICR mice; conditions: day 19; compared to Aβ1-42 treated group; FIG. 17
Experimental: as §1, §2

SMILES | expression level of BDNF in hippocampal tissues [1] | expression level of oligomeric Aβ (amyloid beta (Aβ) [2]) | expression level of polymeric Aβ (amyloid beta (Aβ) [2]) | expression level of AB (amyloid beta (Aβ) [2]) | expression level of Aβ in hippocampal tissues (amyloid beta (Aβ) [3]) | cell survival rate level (primary neuronal cells) | neuron apoptosis inhibition efficacy (primary neuronal cells) | expression level of APP [4] | identification rate (OLT) [5] | time investigating the object moved to a different location [5] | expression level of p-Tau in hippocampal tissues [6] | phosphorylation level of p-Tau in hippocampal tissues [6] | expression level of p-TrKB in hippocampal tissues [7]
CCCCCc1cc2c(c(O)c1C(=O)O)[C@@H]1C=C(C)CC[C@H]1C(C)(C)O2 [THCA, (6aR, 10aR)-1-Hydroxy-6,6,9-trimethyl-3-pentyl-6a,7,8,10a-tetrahydro-6H-benzo[c]chromene-2-carboxylic acid] | significantly increased | significantly reduced | significantly reduced | significantly reduced | significantly reduced | significantly increased | better neuron apoptosis inhibition efficacy | significantly reduced | significantly increased | spent more time | significantly reduced | significantly reduced | significantly increased
C=C(C)[C@@H]1CCC(C)=C[C@H]1c1c(O)cc(CCCCC)c(C(=O)O)c1O [CBDA] | significantly increased | significantly reduced | significantly reduced | significantly reduced | significantly reduced | significantly increased | better neuron apoptosis inhibition efficacy | significantly reduced | significantly increased | spent more time | significantly reduced | significantly reduced | significantly increased
